Measured values taken from ChEMBL document CHEMBL1201862, “PubChem BioAssay data set” (2004).
“And” between values parts separate entries of the source, which are not always exact repeats. Identical values can stand only once.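 Dose response: 5 concentrations. Exposure: 48 h. Format: 96-well plates. Endpoint: linear interpolation; highest concentration if not reached. GI50 is the concentration that inhibits growth by half.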 The source made the active and inactive calls. Cut-off read from the data, not from the text of the source: active = GI50 up to about 1.1 µM and inactive = higher.

Tests used:
Experiment in all cases: growth of human tumour cells (NCI), 48 h
SK-OV-3 = test system: SK-OV-3
NCI-H23 = test system: NCI-H23
SNB-75 = test system: SNB-75
A549 = test system: A549
OVCAR-5 = test system: OVCAR-5
A498 = test system: A498
Malme-3M = test system: Malme-3M
SF-539 = test system: SF-539
SF-268 = test system: SF-268
HL-60 = test system: HL-60
UO-31 = test system: UO-31
OVCAR-4 = test system: OVCAR-4
SK-MEL-2 = test system: SK-MEL-2
LOX IMVI = test system: LOX IMVI
SK-MEL-5 = test system: SK-MEL-5
MDA-N = test system: MDA-N
T47D = test system: T47D
CAKI-1 = test system: CAKI-1
NCI-H522 = test system: NCI-H522
CCRF-CEM = test system: CCRF-CEM

Structure (SMILES) | GI50 (SK-OV-3) | GI50 (NCI-H23) | GI50 (SNB-75) | GI50 (A549) | GI50 (OVCAR-5) | GI50 (A498) | GI50 (Malme-3M) | GI50 (SF-539) | GI50 (SF-268) | GI50 (HL-60) | GI50 (UO-31) | GI50 (OVCAR-4) | GI50 (SK-MEL-2) | GI50 (LOX IMVI) | GI50 (SK-MEL-5) | GI50 (MDA-N) | GI50 (T47D) | GI50 (CAKI-1) | GI50 (NCI-H522) | GI50 (CCRF-CEM)
Oc1ccc(NCc2cc(O)ccc2O)cc1 | 17.8 µM (inactive) | 18.1 µM (inactive) | 17.2 µM (inactive) | 53.1 µM (inactive) | 18.3 µM (inactive) | 28.4 µM (inactive) | 19.1 µM (inactive) | 23.2 µM (inactive) | 17.2 µM (inactive) | 3.03 µM (inactive) | 14.1 µM (inactive) | 16.5 µM (inactive) | 18.2 µM (inactive) | 17.1 µM (inactive) | 16.9 µM (inactive) | 3.17 µM (inactive) | 19.6 µM (inactive) | 16 µM (inactive) | 2.06 µM (inactive) | –
C=CCCCCOC1C=CC(OC(C)=O)C(COC(C)=O)O1 (centres undefined) | > 100 µM (inactive) | > 100 µM (inactive) | – | > 100 µM (inactive) | > 100 µM (inactive) | > 100 µM (inactive) | > 100 µM (inactive) | > 100 µM (inactive) | > 100 µM (inactive) | > 100 µM (inactive) | > 100 µM (inactive) | > 100 µM (inactive) | > 100 µM (inactive) | > 100 µM (inactive) | > 100 µM (inactive) | > 100 µM (inactive) | > 100 µM (inactive) | > 100 µM (inactive) | > 100 µM (inactive) | > 100 µM (inactive)
O=C1/C(=C\c2cccc(Oc3ccccc3)c2)S(=O)(=O)C(c2ccccc2)N1Cc1ccccc1 (centres undefined) | > 100 µM (inactive) | 28 µM (inactive) | – | 49.2 µM (inactive) | 57 µM (inactive) | 19.3 µM (inactive) | 18.4 µM (inactive) | 36.4 µM (inactive) | – | 11.7 µM (inactive) | 18.7 µM (inactive) | – | 16.3 µM (inactive) | 25.1 µM (inactive) | 18.5 µM (inactive) | 29.6 µM (inactive) | 32.8 µM (inactive) | 26.6 µM (inactive) | 13.9 µM (inactive) | 24.5 µM (inactive)
COc1ccc(/C=C2\C[C@H]3[C@@H]4CC=C5C[C@@H](O)CC[C@]5(C)[C@H]4CC[C@]3(C)\C2=N\O)cc1 | 34.9 µM (inactive) | 16.9 µM (inactive) | – | 7.98 µM (inactive) | – | 25.9 µM (inactive) | 24.9 µM (inactive) | 21.8 µM (inactive) | 4.95 µM (inactive) | 3.17 µM (inactive) | 14.3 µM (inactive) | 51.5 µM (inactive) | 15.6 µM (inactive) | 11.6 µM (inactive) | 5.04 µM (inactive) | 18.8 µM (inactive) | 1.26 µM (inactive) | 2.58 µM (inactive) | 4.97 µM (inactive) | 4.58 µM (inactive)
CC(C)Cn1cnc2c(NCC(C)O)nc3ccccc3c21 (centres undefined) | > 100 µM (inactive) | > 100 µM (inactive) | 56.1 µM (inactive) | > 100 µM (inactive) | > 100 µM (inactive) | 60.8 µM (inactive) | 74.3 µM (inactive) | > 100 µM (inactive) | > 100 µM (inactive) | 37.5 µM (inactive) | 38.9 µM (inactive) | > 100 µM (inactive) | > 100 µM (inactive) | 42.6 µM (inactive) | 70.6 µM (inactive) | > 100 µM (inactive) | > 100 µM (inactive) | 66.4 µM (inactive) | > 100 µM (inactive) | > 100 µM (inactive)
CCOP(=O)(OCC)/C(C#N)=C/c1c[nH]c2ccccc12 | > 100 µM (inactive) | > 100 µM (inactive) | > 100 µM (inactive) | > 100 µM (inactive) | > 100 µM (inactive) | > 100 µM (inactive) | > 100 µM (inactive) | > 100 µM (inactive) | > 100 µM (inactive) | > 100 µM (inactive) | 45.8 µM (inactive) | > 100 µM (inactive) | > 100 µM (inactive) | > 100 µM (inactive) | > 100 µM (inactive) | > 100 µM (inactive) | > 100 µM (inactive) | > 100 µM (inactive) | > 100 µM (inactive) | –
O=C(O)c1cccc(S(=O)(=O)NN2C(=O)CSC2c2ccccc2)c1 (centres undefined) | > 100 µM (inactive) | > 100 µM (inactive) | > 100 µM (inactive) | > 100 µM (inactive) | > 100 µM (inactive) | > 100 µM (inactive) | > 100 µM (inactive) | > 100 µM (inactive) | > 100 µM (inactive) | 4.4 µM (inactive) | > 100 µM (inactive) | – | > 100 µM (inactive) | > 100 µM (inactive) | > 100 µM (inactive) | 74.6 µM (inactive) | > 100 µM (inactive) | > 100 µM (inactive) | 27.6 µM (inactive) | > 100 µM (inactive)
CC(=O)OCC1OC(SC2=NC(=O)CS2)C(OC(C)=O)C(OC(C)=O)C1OC(C)=O (centres undefined) | > 100 µM (inactive) | > 100 µM (inactive) | > 100 µM (inactive) | > 100 µM (inactive) | > 100 µM (inactive) | > 100 µM (inactive) | > 100 µM (inactive) | > 100 µM (inactive) | > 100 µM (inactive) | 26.7 µM (inactive) and 23.4 µM (inactive) | > 100 µM (inactive) | – | – | > 100 µM (inactive) | > 100 µM (inactive) | > 100 µM (inactive) | > 100 µM (inactive) | 68.7 µM (inactive) | 47 µM (inactive) and 78.9 µM (inactive) | 31.5 µM (inactive) and 32.3 µM (inactive)
Cc1ccc(/N=N/C(=N/NC(=O)c2cc(Cl)ccc2O)c2ccc(N(CCC#N)CCC#N)cc2C)cc1 | 32.9 µM (inactive) | 18.6 µM (inactive) | 26.7 µM (inactive) | 28.6 µM (inactive) | 41.5 µM (inactive) | 12.1 µM (inactive) | 20.6 µM (inactive) | 18.5 µM (inactive) | 25.1 µM (inactive) | 4.55 µM (inactive) | 24.8 µM (inactive) | 23.8 µM (inactive) | 15.7 µM (inactive) | – | 16.8 µM (inactive) | 30.6 µM (inactive) | 7.29 µM (inactive) | 41.4 µM (inactive) | 8.95 µM (inactive) | 26 µM (inactive)
O=C1C(N2CCCC2)=CC(=O)c2c(O)c(N3CCCC3)c(Cl)c(O)c21 | > 10 µM (inactive) | > 10 µM (inactive) | > 10 µM (inactive) | > 10 µM (inactive) | – | > 10 µM (inactive) | > 10 µM (inactive) | > 10 µM (inactive) | > 10 µM (inactive) | > 10 µM (inactive) | > 10 µM (inactive) | > 10 µM (inactive) | > 10 µM (inactive) | > 10 µM (inactive) | > 10 µM (inactive) | > 10 µM (inactive) | > 10 µM (inactive) | > 10 µM (inactive) | > 10 µM (inactive) | > 10 µM (inactive)
Cc1cccc(C2ON=C(c3ccccc3)N2C23CC4CC(CC(C4)C2)C3)c1 (centres undefined) | > 10 µM (inactive) | > 10 µM (inactive) | 7.28 µM (inactive) | > 10 µM (inactive) | > 10 µM (inactive) | > 10 µM (inactive) | > 10 µM (inactive) | > 10 µM (inactive) | > 10 µM (inactive) | > 10 µM (inactive) | – | > 10 µM (inactive) | > 10 µM (inactive) | > 10 µM (inactive) | > 10 µM (inactive) | > 10 µM (inactive) | > 10 µM (inactive) | > 10 µM (inactive) | > 10 µM (inactive) | > 10 µM (inactive)
CC(C)(C)[Si](C)(C)OCC#C[C@@]1(O)CCCCC1CC(Sc1ccccc1)Sc1ccccc1 (some centres undefined) | 15.7 µM (inactive) | 14.9 µM (inactive) | 14.8 µM (inactive) | 14.9 µM (inactive) | 14.2 µM (inactive) | 16.3 µM (inactive) | 16.1 µM (inactive) | – | – | 18.8 µM (inactive) | 13.9 µM (inactive) | 13.9 µM (inactive) | 15.8 µM (inactive) | 17.3 µM (inactive) | 15.7 µM (inactive) | 18.2 µM (inactive) | 10.7 µM (inactive) | 10.7 µM (inactive) | 11.4 µM (inactive) | 11.8 µM (inactive)
O=C(NO)c1ccc(OCc2ccccc2)cc1 | 37.2 µM (inactive) | 14.1 µM (inactive) | 29.4 µM (inactive) | 33 µM (inactive) | 27.4 µM (inactive) | 16.3 µM (inactive) | – | 28.7 µM (inactive) | 39.7 µM (inactive) | 16 µM (inactive) | 22.2 µM (inactive) | 15 µM (inactive) | 30.3 µM (inactive) | 19.1 µM (inactive) | 45.6 µM (inactive) | 25.9 µM (inactive) | 11.5 µM (inactive) | 18.1 µM (inactive) | 9.62 µM (inactive) | 6.89 µM (inactive)
COc1cccc(-c2cc(O)c3cc(C)cnc3n2)c1 | 0.283 µM (active) | 0.203 µM (active) | 0.0188 µM (active) | 0.0776 µM (active) | 0.82 µM (active) | 0.0904 µM (active) | – | 0.0371 µM (active) | 0.594 µM (active) | 0.0246 µM (active) | 1.26 µM (inactive) | > 67.1 µM (inactive) | 0.0293 µM (active) | 0.0512 µM (active) | 0.0787 µM (active) | 0.0106 µM (active) | > 100 µM (inactive) | 0.0389 µM (active) | 0.0389 µM (active) | 0.0366 µM (active)
CC(C)(C)NCC(O)COc1cccc2[nH]c(C#N)cc12 (centres undefined) [CYANOPINDOLOL] | > 100 µM (inactive) | > 100 µM (inactive) | – | > 100 µM (inactive) | > 100 µM (inactive) | 68.1 µM (inactive) | > 100 µM (inactive) | > 100 µM (inactive) | > 100 µM (inactive) | > 100 µM (inactive) | > 100 µM (inactive) | > 100 µM (inactive) | > 100 µM (inactive) | – | > 100 µM (inactive) | > 100 µM (inactive) | > 100 µM (inactive) | > 100 µM (inactive) | 27.2 µM (inactive) | –
